Where “and” joins values, the source holds several entries; their conditions need not be identical. Equal entries are not always repeated. Inconclusive results and toxic doses are left out. No stated cut-off is given here; in the data, active means T/C of 150% or more; inactive means T/C below 125%.
Tested on: L1210 leukemia ip in BDF1 mice, survival T/C
Assay: NCI In Vivo Anticancer Drug Screen. Data for tumor model L1210 Leukemia (intraperitoneal) in B6D2F1 (BDF1) mice
Details: endpoint: mean survival time, higher = longer survival
Procedure, shortened: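 Tumor cells were implanted, animals were treated, and survival was followed. The result divides the treated measurement by the vehicle-control measurement.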

Measured: T/C

CCN(C(=O)c1cccc(C(=O)N(CC)c2cccc(C)c2)c1)c1cccc(C)c1
inactive: dose: 100.0 mg/kg/injection, schedule: Q04DX002 (ip), vehicle: Klucel (hydroxypropylcellulose) (HPC) 94 % of control | dose: 200.0 mg/kg/injection, schedule: Q04DX002 (ip), vehicle: Klucel (hydroxypropylcellulose) (HPC) 91 % of control | dose: 400.0 mg/kg/injection, schedule: Q04DX002 (ip), vehicle: Klucel (hydroxypropylcellulose) (HPC) 91 % of control

C/C(=C/C=C(c1ccccc1)c1ccccc1)C1CCC2C3CCC4CC5CCC4(C)C3(O5)C(=O)CC12C (stereo not drawn)
inactive: dose: 100.0 mg/kg/injection, schedule: Q04DX003 (sc), vehicle: steriod suspending solution 96 % of control | dose: 200.0 mg/kg/injection, schedule: Q04DX003 (sc), vehicle: steriod suspending solution 93 % of control | dose: 400.0 mg/kg/injection, schedule: Q04DX003 (sc), vehicle: steriod suspending solution 93 % of control

O=NN1CCCC1C(=O)O (stereo not drawn)
inactive: dose: 100.0 mg/kg/injection, schedule: Q01DX001 (ip), vehicle: saline 101 % of control | dose: 200.0 mg/kg/injection, schedule: Q01DX001 (ip), vehicle: saline 101 % of control and 93 % of control

Cc1ccc([N+](=O)[O-])c(O)c1[N+](=O)[O-]
inactive: dose: 100.0 mg/kg/injection, schedule: Q01DX009 (ip), vehicle: Klucel (hydroxypropylcellulose) (HPC) 104 % of control | dose: 100.0 mg/kg/injection, schedule: Q04DX003 (ip), vehicle: Klucel (hydroxypropylcellulose) (HPC) 102 % of control | dose: 200.0 mg/kg/injection, schedule: Q01DX009 (ip), vehicle: Klucel (hydroxypropylcellulose) (HPC) 93 % of control | dose: 200.0 mg/kg/injection, schedule: Q04DX003 (ip), vehicle: Klucel (hydroxypropylcellulose) (HPC) 89 % of control | dose: 400.0 mg/kg/injection, schedule: Q04DX003 (ip), vehicle: Klucel (hydroxypropylcellulose) (HPC) 102 % of control
